Where two headings read alike, the source gives them in different places.
Legend:
[1] = test system: maximal electroshock (MES)-induced seizures; assay: Maximal electroshock seizure (MES) test, mice (ip); format: in vivo; conditions: mice, ip, time (h) in brackets, Table 2, footnotes not given
[2] = test system: behavioral toxicity; conditions: rat, po; Table 3, Ref 16, 32; cited from earlier work
[3] = test system: maximal electroshock (MES)-induced seizures; assay: Maximal electroshock seizure (MES) test, rat (po); format: in vivo; conditions: rat, time (h) in brackets, Table 2
Experimental: The maximal electroconvulsive shock (MES) test is regarded as a standard screen for anticonvulsant activity in terms of inhibition of seizure spread in generalized tonic-clonic seizures.
Groups of at least 8 male albino CF No. 1 mice or male albino Sprague-Dawley rats are treated with 10 mL/kg i.p. or 4 mL/kg p.o. of the test compound solution, respectively. The electrical stimulus in the MES test is 50 mA at 60 Hz for mice and 150 mA at 60 Hz for rats, both delivered for 0.2 sec. Abolition of the hind leg tonic extensor component of the seizure is used as the endpoint.

[4] = test system: hippocampal kindled seizures; assay: Hippocampal kindling test, rats; format: in vivo; conditions: for Preliminary Hippocampal Kindling Test, After discharge duration, Drug / Preliminary Hippocampal Kindling Test, Seizure Score, Drug: rats; for Preliminary Hippocampal Kindling Test, Seizure Score, Drug: after drug (pre-drug score 4-5)
Experimental: The kindling model provides a tool to predict a test compound's activity in complex partial seizures.
Male albino Sprague-Dawley rats (n=8) are kindled to a Stage 5 behavioral seizure. They are treated with an appropriate i.p. dose of the test compound after a 1-week, stimulus-free period. The test compound is evaluated for its effect on kindled motor seizures (seizures scores of 4 and 5), limbic behavior seizures (seizure scores between 1 and 3) and after-discharge duration. After 15 min, each rat is stimulated every 30 min for 3-4 h. Following each stimulation, individual seizure scores and after-discharge duration are recorded. The group mean and standard error of the mean (SEM) are calculated for each parameter.

[5] = test system: neurologic toxicity (rotorod test); conditions: mice, ip, Table 3, Ref 30, 16, 32; cited from earlier work
[6] = test system: maximal electroshock (MES)-induced seizures; conditions: rat, po; Table 3, Ref 16, 32; cited from earlier work
[7] = test system: behavioral toxicity; assay: Toxicity (behavioral toxicity), rat (po); format: in vivo; conditions: time (h) in brackets, Table 2
Experimental: Tests are conducted in groups of at least 8 mice or rats to determine the intrinsic neurotoxicity (neuromuscular impairment) after administration of the test compound by the route of administration to be used in the pharmacology studies. Neurotoxicity is determined in male CF No 1 mice by the rotarod procedure. Inability of the mouse to maintain its equilibrium in 3 trials during 1 min on this rotating rod (6 rpm) is used as an indication of such impairment. In Sprague-Dawley rats, minimal motor impairment (MMI) is determined by overt evidence of ataxia, abnormal gait, and stance.

[8] = test system: mechanical allodynia after partial sciatic nerve ligation; assay: Partial sciatic nerve ligation model, rats (ip); format: in vivo; conditions: dose 12, p < 0.05

SMILES | MES, ED50 [1] | Tox, TD50 [2] | MES, ED50 [3] | Preliminary Hippocampal Kindling Test, After discharge duration, Drug [4] [s] | Preliminary Hippocampal Kindling Test, Seizure Score, Drug [4] | Tox, TD50 [5] | MES, ED50 [6] | Tox, TD50 [7] | ED50 ([4]; Rattus norvegicus, ip, read-out: Hippocampal Kindled Rats (ip) ED50 (inteval)) [mg/kg] | ED50 ([1]; Mus musculus) [mg/kg] | fold attentaution of mechanical allodynia at 1 h [8]
CCC1(c2ccccc2)C(=O)NC(=O)NC1=O [Phenobarbital, reference compound] | 22 [1] | 61 [0.5] milligrams per kilogram |  |  |  |  |  |  |  |  | 
O=C1NC(=O)C(c2ccccc2)(c2ccccc2)N1 [phenytoin, reference compound] |  |  | 30 [4] | 51 | 3 | 66 [2.0] milligrams per kilogram | 30 [4.0] milligrams per kilogram | ^hNo ataxia observed up to 3000 mg/kg. |  |  | 
COC[C@@H](NC(C)=O)C(=O)NCc1ccc(OCc2cccc(F)c2)cc1 [(R)-3, (R)-2-Acetamido-N-(4-(3-fluorobenzyloxy)benzyl)-3-methoxypropanamide] |  |  |  | 0 | 0 |  |  |  | 12 | 13 | 11.2 fold attentaution of mechanical

Source: US8933065B2, “N-benzylamide substituted derivatives of 2-(acylamido)acetic acid and 2-(acylamido)propionic acids: potent neurological agents” (The University of North Carolina at Chapel Hill, priority 2008, dated 2015)
